{"source": "patent US11058756B2", "about": "“Compositions and methods of treating autoimmune disease by reducing enterococcus” (YALE UNIVERSITY, priority 2017, dated 2021)", "key": {"(NZWxBXSB)F1 mice": {"tested_on": "(NZWxBXSB)F1 mice", "assay": "Oral antibiotics in drinking water: mortality, clinical outcome, proteinuria and organ histology in the autoimmune hybrid model", "type": "in vivo, mouse", "source_text": "6-week-old male (NZWxBXSB)F1 mice and C57BL/6J mice were used in this study except if noted otherwise. (NZWxBXSB)F1 were bred by mating NZW/LaJ females with BXSB/MpJ males obtained from Jackson Laboratory (Bar Harbor, Me., USA). Parental littermates of (NZWxBXSB)F1 were randomly mixed with littermates from other parental cages 21 days after birth to equilibrate the microbiomes from different cages and parental origin. All mice were maintained in a specific-pathogen-free environment. (NZWxBXSB)F1 mice were provided with water and a standard laboratory diet ad libitum (2018 Harlan Teklad, South Easton, Mass., USA). They were supplied with hardwood chips as bedding and were housed in a temperature-controlled, air-conditioned room on a 12-hr light-dark cycle. Germ-free (GF) C57BL/6 mice were kept under sterile conditions in CBC's (Class Biologically Clean, Madison, Wis., USA) Quad flexible film isolators (Softwall), exposed to a 12-hr light/dark cycle and provided standard, autoclaved tap water and mouse chow (2018S Harlan Teklad, South Easton, Mass., USA) ad libitum. To exclude a Th17 bias, a PCR for segmented filamentous bacteria (SFB) was performed on fecal DNA from all mice involving Th17 studies. Fecal SFB detection at 6-8 weeks of age that correlates with ileal SFB colonization was performed as described (Barman et al., 2008, Infect Immun, 76, 907-915; Kriegel et al., 2011, Proc Natl Acad Sci USA, 108, 11548-11553). All Th17 data was derived from SFB-negative animals.\n(§1) Mice were cohoused for 3 to 4 weeks before antibiotic treatment to allow for equilibration of the microbiota. Single antibiotic or broad-spectrum antibiotic administration consisted of metronidazole (1 g/liter; Fisher Scientific), neomycin (1 g/liter; Fisher Scientific), ampicillin (1 g/liter; Sigma) and vancomycin (0.5 g/liter; Acros Organics) in the drinking water for up to 22 weeks or a targeted regiment for 2 weeks and then replaced with regular water for the duration of the experiment. For broad-spectrum antibiotic experiments (vancomycin, ampicillin, metronidazole, and neomycin combined), sweetener (Equal, 4 g/L) was added to both the antibiotics and control water due to the metallic taste of metronidazole. Twenty-four hours after cessation of antibiotic water, mice were administered 1×10^6 CFUs of vancomycin-resistant E. gallinarum via oral gavage, isolated from liver tissue of a vancomycin-treated mouse that continued to show signs of autoimmune disease (high-level resistance was confirmed by vanC gene PCR). E. gallinarum was grown at 37° C. in Gifu Anaerobic Broth (HIMEDIA Laboratories) to early stationary phase under anaerobic conditions (82% N2, 15% CO2, 3% H2 by volume) in an anaerobic chamber and diluted in PBS to 10^7 CFUs.\nSamples were obtained at autopsy and fixed in 10% neutral formalin, and histological sections were stained with hematoxylin and eosin (H&E) and scored in a blinded fashion. Glomerulonephritis was scored on a scale of 0-4 based on the intensity and extent of histopathological changes (Klopfleisch, 2013, BMC Vet Res, 9, 123). A grade of 0 was given to kidneys without glomerular lesions; grade 1 consisted of minimal thickening of the mesangium; grade 2 contained noticeable increases in both mesangial and glomerular cellularity; grade 3 was characterized by the preceding conditions with superimposed inflammatory exudates and capsular adhesions; and grade 4 consisted of obliterated glomerular architecture in greater than 70% of glomeruli. […]"}, "Th17 and Tfh cells": {"tested_on": "Th17 and Tfh cells", "assay": "Th17/Tfh cell frequencies (FACS) and splenocyte cytokines (LEGENDplex) after antibiotic treatment in vivo", "design": "species or system mouse", "source_text": "as §1\nCytokine levels were determined from culture supernatants using LEGENDplex™ (BioLegend), a bead-based immunoassay. The preformed mouse T helper cytokine panel was used. […]\nFor direct ex vivo intracellular cytokine detection, cells isolated from small intestinal lamina propria, MLN or spleen were immediately treated with GolgiStop (BD Bioscience) and surface-stained in FACS buffer (PBS, 2% bovine serum albumin, 0.2 mg of sodium azide, 2 mM EDTA) for 30 minutes in the dark at room temperature with fluorescently conjugated antibodies specific for CD3, CD4, CD11b, CD11c, CD44, CD62L, CD19, CD45, CD45R (B220), CXCR5, GITR, IL-17, IFN-g, Ly6C, NK1.1, PDCA-1, PD-1 and PSGL-1. […] Cell viability was assessed with Zombie NIR Fixable Viability Kit (BioLegend)."}, "MLN Th17 cells": {"tested_on": "MLN Th17 cells", "assay": "Vancomycin in vitro assay on MLN cell cultures (Th17 frequency by FACS)", "type": "cell-based, mouse", "conditions": "vancomycin 16 μg/mL, anti-CD3/anti-CD28, 3 days (FIG. 19D legend)", "protocol": "[…] In vitro samples were stained as described above. All samples were collected using an LSR II flow cytometer (Becton Dickinson). All flow cytometry data were analyzed by FlowJo version 9.7 (Tree Star)."}, "E. gallinarum": {"tested_on": "E. gallinarum", "assay": "Assessment of bacterial translocation and tissue burden (anaerobic tissue cultures, CFU)", "type": "in vivo, mouse", "conditions": "FIG. 1K-1N", "description": "Mice were cohoused for 3 to 4 weeks before antibiotic treatment to allow for equilibration of the microbiota. Single antibiotic or broad-spectrum antibiotic administration consisted of metronidazole (1 g/liter; Fisher Scientific), neomycin (1 g/liter; Fisher Scientific), ampicillin (1 g/liter; Sigma) and vancomycin (0.5 g/liter; Acros Organics) in the drinking water for up to 22 weeks or a targeted regiment for 2 weeks and then replaced with regular water for the duration of the experiment. For broad-spectrum antibiotic experiments (vancomycin, ampicillin, metronidazole, and neomycin combined), sweetener (Equal, 4 g/L) was added to both the antibiotics and control water due to the metallic taste of metronidazole. […] E. gallinarum was grown at 37° C. in Gifu Anaerobic Broth (HIMEDIA Laboratories) to early stationary phase under anaerobic conditions (82% N2, 15% CO2, 3% H2 by volume) in an anaerobic chamber and diluted in PBS to 10^7 CFUs.\n14-, 16- and 18-week-old mice underwent sterile laparotomy and nose, mouth, small intestine (luminal and adherent fractions), mesenteric veins, mesenteric lymph nodes (MLN), liver and spleen were aseptically collected in BBL Mycoflask Thioglycollate (Fluid) Prepared Media (BD Diagnostic Systems) and incubated for 72 hours in anaerobic conditions at 37° C. Gifu Media Agar plates were streaked with the content from the BBL Mycoflask Thioglycollate and incubated for 48 hours in an anaerobic chamber at 37° C. Colony Formation Units (CFU) were counted and concentration determined per milligram of tissue. Single colonies were grown in Gifu anaerobic media for 48 hours in an anaerobic chamber at 37° C. and aliquots from each sample were collected and centrifuge for 10 minutes at 10000×g. DNA was extracted from bacterial pellets using DNeasy Blood and Tissue kit (Qiagen) and submitted to PCR amplification of the 16S region and Sanger sequencing. In addition, purified DNA was used for eubacterial, Enterococcus genus and Enterococcus gallinarum PCR assays."}}, "note": "Entries after “also recorded” stand apart in the source; their conditions may differ.", "data": [{"smiles": "CN[C@H](CC(C)C)C(=O)N[C@H]1C(=O)N[C@@H](CC(N)=O)C(=O)N[C@H]2C(=O)N[C@H]3C(=O)N[C@H](C(=O)N[C@H](C(=O)O)c4cc(O)cc(O)c4-c4cc3ccc4O)[C@H](O)c3ccc(c(Cl)c3)Oc3cc2cc(c3O[C@@H]2O[C@H](CO)[C@@H](O)[C@H](O)[C@H]2O[C@H]2C[C@](C)(N)[C@H](O)[C@H](C)O2)Oc2ccc(cc2Cl)[C@H]1O", "note": "[vancomycin]", "values": [{"measurement": "Mortality", "setting": "(NZWxBXSB)F1 mice; single antibiotic in drinking water from 6 weeks of age, followed for 30 weeks or until death, FIG. 1A", "result": "prevented"}, {"measurement": "autoimmune manifestations (proteinuria, organ histology scores)", "setting": "(NZWxBXSB)F1 mice; single antibiotic in drinking water, FIG. 1D-1I", "result": "prevented"}, {"measurement": "Tfh cells", "setting": "Th17 and Tfh cells; MLN of (NZWxBXSB)F1 mice treated via drinking water, FIG. 19C", "result": "reduced; also recorded: suppresses"}, {"measurement": "Th17 cells", "setting": "Th17 and Tfh cells; spleen and MLN of (NZWxBXSB)F1 mice, SFB-negative, treated via drinking water, FIG. 19", "result": "reduced; also recorded: suppresses"}, {"measurement": "cytokine signatures (inflammatory cytokines in splenocyte supernatants)", "setting": "Th17 and Tfh cells; splenocytes stimulated with anti-CD3/anti-CD28 for 3 days, FIG. 19A", "result": "reduced; also recorded: suppresses"}, {"measurement": "direct influence on immune cells in vitro (MLN Th17 cell frequency)", "setting": "MLN Th17 cells", "result": "no direct influence"}, {"measurement": "Translocation (bacterial growth in mesenteric veins, MLN, liver, spleen)", "setting": "E. gallinarum; (NZWxBXSB)F1 mice, antibiotics in drinking water, 16-18 weeks of age", "result": "reduced"}, {"measurement": "suppression of growth of E. gallinarum in tissues, VANC compared to NEO-treated animals", "setting": "E. gallinarum; mesenteric veins, MLN, liver, spleen, P=0.0337 and P<0.005", "result": "significantly higher"}]}]}
